According to patent publication US12281122B1, “PI3K inhibitors” (Cogent Biosciences, Inc., priority 2023, dated 2025):

Columns and labels:
[1] = tested on: T47D (PI3Kα-H1047R) cell line; experiment: HTRF phospho-AKT(S473) cell assay in T47D cells; format: cell-based, human
Summary of the method: (§1)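 pAKT(S473) in lysates read by HTRF after a 2 h, 37 °C compound exposure (12-point 1:3 series, max 0.5% DMSO). SKBR3 (wild type, top 10 μM) received 70 ng/ml PDGF-BB during the final 15 min; T47D (H1047R, top 5 μM) was unstimulated. IC50 values derived from the dose-response.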

[2] = tested on: SKBR3 (PI3Kα-Wild Type) cell line; experiment: HTRF phospho-AKT(S473) cell assay in SKBR3 cells; format: cell-based, human
Summary of the method: as §1

[3] = Homo sapiens; HTRF phospho-AKT(S473), T47D (PI3Kα-H1047R) cells, 2 hours compound incubation
[4] = Homo sapiens, SK-BR-3; HTRF phospho-AKT(S473), SKBR3 (PI3Kα-Wild Type) cells, 2 hours compound incubation, PDGF-BB stimulated
[5] = Homo sapiens; T47D (PI3Kα-H1047R) cells, HTRF phospho-AKT(S473), 2 hours compound incubation
[6] = Homo sapiens, SK-BR-3; SKBR3 (PI3Kα-Wild Type) cells, HTRF phospho-AKT(S473), 2 hours compound incubation, PDGF-BB stimulated

| IC50 [1, 3] [µM] | IC50 [2, 4] [µM] | IC50 [1, 5] [µM] | IC50 [2, 6] [µM] | SMILES |
| --- | --- | --- | --- | --- |
| 0.25 to 0.5 | ≥ 5 |  |  | Cc1cc([C@@H](C)Nc2ccc(Cl)nc2C(=O)NS(C)(=O)=O)c2nc(N3CC[C@H](c4ccnc(C)n4)C3)n(C)c(=O)c2c1 (relative stereo) [Compound 599, 6-chloro-3-(((R)-1-(3,6-dimethyl-2-((R*)-3-(2-methylpyrimidin-4-yl)pyrrolidin-1-yl)-4-oxo-3,4-dihydroquinazolin-8-yl)ethyl)amino)-N-(methylsulfonyl) picolinamide] |
| < 0.25 | 1 to 5 |  |  | COc1c([C@H]2[C@@H]3CN(c4nc5c([C@@H](C)Nc6ccc(Cl)nc6C(=O)NS(C)(=O)=O)cc(C)cc5c(=O)n4C)C[C@@H]32)cnn1C [Compound 461, 6-chloro-3-(((R)-1-(2-((1R,5S,6S)-6-(5-methoxy-1-methyl-1H-pyrazol-4-yl)-3-azabicyclo[3.1.0]hexan-3-yl)-3,6-dimethyl-4-oxo-3,4-dihydroquinazolin-8-yl)ethyl)amino)-N-(methylsulfonyl) picolinamide] |
| 0.25 to 0.5 | ≥ 5 |  |  | Cc1cc([C@@H](C)Nc2ccc(Cl)nc2C(=O)NS(C)(=O)=O)c2nc(N3CCC(c4n[nH]c(C)c4F)CC3)n(C)c(=O)c2c1 [Compound 547, (R)-6-chloro-3-((1-(2-(4-(4-fluoro-5-methyl-1H-pyrazol-3-yl)piperidin-1-yl)-3,6-dimethyl-4-oxo-3,4-dihydroquinazolin-8-yl)ethyl)amino)-N-(methylsulfonyl) picolinamide] |
|  |  | < 0.25 | ≥ 5 | Cc1cc([C@@H](C)Nc2ccc(Cl)nc2C(=O)NS(C)(=O)=O)c2nc(N3Cc4cnn(-c5ccccc5C)c4C3)n(C)c(=O)c2c1 [Compound 191, (R)-6-chloro-3-((1-(3,6-dimethyl-4-oxo-2-(1-(o-tolyl)-4,6-dihydropyrrolo[3,4-c]pyrazol-5(1H)-yl)-3,4-dihydroquinazolin-8-yl)ethyl)amino)-N-(methylsulfonyl) picolinamide] |
| 0.25 to 0.5 | 1 to 5 |  |  | Cc1cc([C@@H](C)Nc2ccc(Cl)nc2C(=O)NS(C)(=O)=O)c2nc(N3CCC(c4nc(C)n(C(F)F)n4)CC3)n(C)c(=O)c2c1 [Compound 723, (R)-6-chloro-3-((1-(2-(4-(1-(difluoromethyl)-5-methyl-1H-1,2,4-triazol-3-yl)piperidin-1-yl)-3,6-dimethyl-4-oxo-3,4-dihydroquinazolin-8-yl)ethyl)amino)-N-(methylsulfonyl) picolinamide] |
| < 0.25 | 1 to 5 |  |  | Cc1cc([C@@H](C)Nc2ccc(Cl)nc2C(=O)NS(C)(=O)=O)c2nc(-c3ccc4nn(C(F)F)cc4c3)n(C)c(=O)c2c1 [Compound 836, (R)-6-chloro-3-((1-(2-(2-(difluoromethyl)-2H-indazol-5-yl)-3,6-dimethyl-4-oxo-3,4-dihydroquinazolin-8-yl)ethyl)amino)-N-(methylsulfonyl) picolinamide] |
|  |  | < 0.25 | 1 to 5 | Cc1cc([C@@H](C)Nc2ccc(Cl)nc2C(=O)NS(C)(=O)=O)c2nc(N3CCC(c4cccc(=O)n4C)CC3)n(C)c(=O)c2c1 [Compound 370, (R)-6-chloro-3-((1-(3,6-dimethyl-2-(4-(1-methyl-6-oxo-1,6-dihydropyridin-2-yl)piperidin-1-yl)-4-oxo-3,4-dihydroquinazolin-8-yl)ethyl)amino)-N-(methylsulfonyl) picolinamide] |
| < 0.25 | 1 to 5 |  |  | Cc1cc([C@@H](C)Nc2ccc(Cl)nc2C(=O)NS(C)(=O)=O)c2nc(N3CCC(c4nnc(C)s4)CC3)n(C)c(=O)c2c1 [Compound 558, (R)-6-chloro-3-((1-(3,6-dimethyl-2-(4-(5-methyl-1,3,4-thiadiazol-2-yl)piperidin-1-yl)-4-oxo-3,4-dihydroquinazolin-8-yl)ethyl)amino)-N-(methylsulfonyl) picolinamide] |
| 0.25 to 0.5 | 1 to 5 |  |  | Cc1cc([C@@H](C)Nc2ccc(Cl)nc2C(=O)NS(C)(=O)=O)c2nc(N3C[C@@H]4C(c5ccnc(C)c5F)[C@@H]4C3)n(C)c(=O)c2c1 (stereo partly drawn) [Compound 763, 6-chloro-3-(((1R)-1-(2-((1R,5S)-6-(3-fluoro-2-methylpyridin-4-yl)-3-azabicyclo[3.1.0]hexan-3-yl)-3,6-dimethyl-4-oxo-3,4-dihydroquinazolin-8-yl)ethyl)amino)-N-(methylsulfonyl) picolinamide] |
| 0.5 to 1 | > 5 |  |  | Cc1ccc(N2C[C@@H]3C[C@H]2CN3c2nc3c([C@@H](C)Nc4ccc(Cl)nc4C(=O)NS(C)(=O)=O)cc(C)cc3c(=O)n2C)nc1 [Compound 663, 6-chloro-3-(((R)-1-(3,6-dimethyl-2-((1S,4S)-5-(5-methylpyridin-2-yl)-2,5-diazabicyclo [2.2.1]heptan-2-yl)-4-oxo-3,4-dihydroquinazolin-8-yl)ethyl)amino)-N-(methylsulfonyl) picolinamide] |
| 0.25 to 0.5 | 1 to 5 |  |  | Cc1cc([C@@H](C)Nc2ccc(Cl)nc2C(=O)NS(C)(=O)=O)c2nc(N3C[C@H]4C[C@@H]3C[C@@H]4c3nn(C)cc3F)n(C)c(=O)c2c1 (relative stereo) [Compound 443, 6-chloro-3-(((R)-1-(2-((1R*,4S*,5S*)-5-(4-fluoro-1-methyl-1H-pyrazol-3-yl)-2-azabicyclo[2.2.1]heptan-2-yl)-3,6-dimethyl-4-oxo-3,4-dihydroquinazolin-8-yl)ethyl)amino)-N-(methylsulfonyl) picolinamide] |
|  |  | < 0.25 | 1 to 5 | Cc1cc([C@@H](C)Nc2ccc(Cl)nc2C(=O)NS(C)(=O)=O)c2nc(N3CCN(c4ncc(C#N)cc4F)CC3)n(C)c(=O)c2c1 [Compound 262, (R)-6-chloro-3-((1-(2-(4-(5-cyano-3-fluoropyridin-2-yl)piperazin-1-yl)-3,6-dimethyl-4-oxo-3,4-dihydroquinazolin-8-yl)ethyl)amino)-N-(methylsulfonyl) picolinamide] |
| < 0.25 | 1 to 5 |  |  | COCCn1ncc2cc(-c3nc4c([C@@H](C)Nc5ccc(Cl)nc5C(=O)NS(C)(=O)=O)cc(C)cc4c(=O)n3C)ccc21 [Compound 791, (R)-6-chloro-3-((1-(2-(1-(2-methoxyethyl)-1H-indazol-5-yl)-3,6-dimethyl-4-oxo-3,4-dihydroquinazolin-8-yl)ethyl)amino)-N-(methylsulfonyl) picolinamide] |
|  |  | < 0.25 | 1 to 5 | Cc1cc([C@@H](C)Nc2ccc(Cl)nc2C(=O)NS(C)(=O)=O)c2nc(N3CCC[C@H](c4cnn(CC(F)(F)F)c4)C3)n(C)c(=O)c2c1 (relative stereo) [Compound 231, 6-chloro-3-(((R)-1-(3,6-dimethyl-4-oxo-2-((R*)-3-(1-(2,2,2-trifluoroethyl)-1H-pyrazol-4-yl)piperidin-1-yl)-3,4-dihydroquinazolin-8-yl)ethyl)amino)-N-(methylsulfonyl) picolinamide] |
| 0.25 to 0.5 | ≥ 5 |  |  | Cc1cc([C@@H](C)Nc2ccc(Cl)nc2C(=O)NS(C)(=O)=O)c2nc(N3C[C@@H]4[C@H](C3)[C@H]4c3nc(C)n(C(F)F)n3)n(C)c(=O)c2c1 [Compound 642, 6-chloro-3-(((R)-1-(2-((1R,5S,6R)-6-(1-(difluoromethyl)-5-methyl-1H-1,2,4-triazol-3-yl)-3-azabicyclo[3.1.0]hexan-3-yl)-3,6-dimethyl-4-oxo-3,4-dihydroquinazolin-8-yl)ethyl)amino)-N-(methylsulfonyl) picolinamide] |
| < 0.25 | 1 to 5 |  |  | Cc1cc([C@@H](C)Nc2ccc(Cl)nc2C(=O)NS(C)(=O)=O)c2nc(-c3ccc4nn(C)cc4c3C)n(C)c(=O)c2c1 [Compound 798, (R)-6-chloro-3-((1-(2-(2,4-dimethyl-2H-indazol-5-yl)-3,6-dimethyl-4-oxo-3,4-dihydroquinazolin-8-yl)ethyl)amino)-N-(methylsulfonyl) picolinamide] |
|  |  | < 0.25 | 1 to 5 | Cc1cc([C@@H](C)Nc2ccc(Cl)nc2C(=O)NS(C)(=O)=O)c2nc(N3CCC[C@H](c4ccc(C)nc4)C3)n(C)c(=O)c2c1 (relative stereo) [Compound 237, 6-chloro-3-(((R)-1-(3,6-dimethyl-2-((R*)-3-(6-methylpyridin-3-yl)piperidin-1-yl)-4-oxo-3,4-dihydroquinazolin-8-yl)ethyl)amino)-N-(methylsulfonyl) picolinamide] |
| < 0.25 | 1 to 5 |  |  | Cc1cc([C@@H](C)Nc2ccc(Cl)nc2C(=O)NS(C)(=O)=O)c2nc(N3CC[C@@H](c4ccnc(C)c4)C3)n(C)c(=O)c2c1 (relative stereo) [Compound 764, 6-chloro-3-(((R)-1-(3,6-dimethyl-2-((R*)-3-(2-methylpyridin-4-yl)pyrrolidin-1-yl)-4-oxo-3,4-dihydroquinazolin-8-yl)ethyl)amino)-N-(methylsulfonyl) picolinamide] |
| 0.5 to 1 | ≥ 5 |  |  | Cc1cc([C@@H](C)Nc2ccc(Cl)nc2C(=O)NS(C)(=O)=O)c2nc(N3C[C@H]4C[C@@H]3CN4c3ccccn3)n(C)c(=O)c2c1 [Compound 603, 6-chloro-3-(((R)-1-(3,6-dimethyl-4-oxo-2-((1R,4R)-5-(pyridin-2-yl)-2,5-diazabicyclo [2.2.1]heptan-2-yl)-3,4-dihydroquinazolin-8-yl)ethyl)amino)-N-(methylsulfonyl) picolinamide] |
